According to patent US20240374744A1, “PROTEIN AND PHARMACEUTICAL COMPOSITION COMPRISING SAME FOR PREVENTION OR TREATMENT OF CANCER” (CELLEMEDY CO., LTD, priority 2021, published 2024):

Legend:
Assay type in all cases: cell-based
Normal lung cells WI-38 = experiment: CCK (cell counting kit) cytotoxicity assay, WI-38; conditions: WI-38 cell; anticancer drug alone vs protein nanoparticle conjugate, from IC50
Description: (§1) Normal lung cells WI-38 and IMR-90, and normal colon cells CCD-18co were grown in 96-well microplate with 1×10^4 cells/well for 36 hours, and the cytotoxicity when only anticancer drug was added and the cytotoxicity when protein nanoparticle-anticancer drug conjugate was added were compared.

[1] = system: normal colon cells CCD-18co; experiment: CCK (cell counting kit) cytotoxicity assay, CCD-18co; conditions: CCD-18co cell; anticancer drug alone vs protein nanoparticle conjugate, from IC50
Description: as §1

Normal lung cells IMR-90 = experiment: CCK (cell counting kit) cytotoxicity assay, IMR-90; conditions: IMR-90 cell; anticancer drug alone vs protein nanoparticle conjugate, from IC50
Description: as §1

COc1cccc2c1C(=O)c1c(O)c3c(c(O)c1C2=O)C[C@@](O)(C(=O)CO)C[C@@H]3O[C@H]1C[C@H](N)[C@H](O)[C@H](C)O1 [DOX, doxorubicin]
drug toxicity reduction (DTR) (Normal lung cells WI-38): 263
drug toxicity reduction (DTR) [1]: 91
drug toxicity reduction (DTR) (Normal lung cells IMR-90): 316

Nc1ccn([C@@H]2O[C@H](CO)[C@@H](O)C2(F)F)c(=O)n1 [GEM, gemcitabine]
drug toxicity reduction (DTR) (Normal lung cells WI-38): 3162
drug toxicity reduction (DTR) [1]: 8913
drug toxicity reduction (DTR) (Normal lung cells IMR-90): 7244
